The text below walks through data of patent US9204653B2, “5-fluoro pyrimidine derivatives” (DOW AGROSCIENCES LLC, priority 2008, dated 2015).

Like-named read-outs stand apart in the source and are kept apart here.

This assay has as its system Mycosphaerella graminicola; Anamorph: Septoria tritici; Bayer Code SEPTTR. The assay is described as follows: Leaf blotch of wheat, foliar fungicide treatment, one day protectant (1DP) or three day curative (3DC). Format: in vivo, Septoria tritici on wheat plants (variety Yuma). The following applies: Zymoseptoria tritici; for pest or weed control at 50 ppm / pest or weed control at 200 ppm: % disease control rating.

Setting [1] is: 24 h, one day protectant (1DP), 25 ppm (first 1DP column), percent control rating, read-out: SETTTR 1DP 25 ppm.
The mark [2] stands for this setting: 24 h, one day protectant (1DP), 25 ppm as printed (second 1DP column), percent control rating, read-out: SETTTR 1DP 25 ppm.
The mark [3] stands for this setting: 72 h, three day curative (3DC), 25 ppm, percent control rating, read-out: SEPTTR 3DC 25 ppm.
Setting [4] is: 72 h, three day curative (3DC), percent control rating, read-out: SEPTTR 3DC 100 ppm.
Setting [5] is: 24 h, one day protectant, 25 ppm, rating of percent disease control, read-out: SETTTR 1DP 25 ppm.
Setting [6] is: 24 h, one day protectant, rating of percent disease control, read-out: SEPTTR 1DP 100 ppm.
Setting [7] is: 72 h, three day curative, 25 ppm, rating of percent disease control, read-out: SEPTTR 3DC 25 ppm.
Setting [8] is: 72 h, three day curative, rating of percent disease control, read-out: SEPTTR 3DC 100 ppm.
The mark [9] stands for this setting: 24 h, one day protectant (1DP), 25 ppm, rating of percent disease control, read-out: SETTTR 1DP 25 ppm.
The mark [10] stands for this setting: 24 h, one day protectant (1DP), rating of percent disease control, read-out: SEPTTR 1DP 100 ppm.
Setting [11] is: 72 h, three day curative (3DC), 25 ppm, rating of percent disease control, read-out: SEPTTR 3DC 25 ppm.
The mark [12] stands for this setting: 72 h, three day curative (3DC), rating of percent disease control, read-out: SEPTTR 3DC 100 ppm.
Setting [13] is: 24 h, one day protectant (1DP), 25 ppm, percent disease control rating, read-out: SETTTR 1DP 25 ppm.
[14] abbreviates: 24 h, one day protectant (1DP), percent disease control rating, read-out: SEPTTR 1DP 100 ppm.
The mark [15] stands for this setting: 72 h, three day curative (3DC), 25 ppm, percent disease control rating, read-out: SEPTTR 3DC 25 ppm.
[16] abbreviates: 72 h, three day curative (3DC), percent disease control rating, read-out: SEPTTR 3DC 100 ppm.

Consider `O=C(Nc1ccccc1)Nc1nc(O)ncc1F` [Compound 967], for which the pest or weed control at 25 ppm lay in the range of 26 to 50% under setting [1], 26 to 50% under setting [2] and 51 to 75% under setting [3]. Moreover, the pest or weed control at 100 ppm under setting [4] fell in the range of 51 to 75%.
As for `Cc1cc(C(C)Oc2ncc(F)c(N)n2)ccc1Cl` (centres unmarked) [Compound 597], the pest or weed control at 25 ppm lay within 76 to 100% under setting [5] and 76 to 100% under setting [7]. The pest or weed control at 100 ppm under setting [6] is 76 to 100% and the pest or weed control at 100 ppm under setting [8] lay in the range of 76 to 100%.
Where the note is “24 h, one day protectant”, `Fc1cnc(OCc2ccc(Cl)cc2)nc1NCCc1ccccc1` [Compound 908] showed a pest or weed control at 50 ppm of 76 to 100% and a pest or weed control at 200 ppm of 76 to 100%.
With `Fc1cnc(OCc2ccco2)nc1NC1CC1` [Compound 898], where the note is “24 h, one day protectant”, the pest or weed control at 50 ppm lay in the range of 0 to 25% and the pest or weed control at 200 ppm lay in the range of 0 to 25%.
As to `COc1cccc(COc2ncc(F)c(N/N=C/c3ncc[nH]3)n2)c1` [Compound 532], the pest or weed control at 25 ppm is, setting by setting: under setting [9], 26 to 50%; under setting [11], 0 to 25%. The pest or weed control at 100 ppm by setting is: under setting [10], 51 to 75%; under setting [12], 26 to 50%.
Take `Nc1nc(OCc2ccc(F)cc2F)ncc1F` [Compound 289]: the pest or weed control at 25 ppm by setting is: under setting [9], 76 to 100%; under setting [11], 76 to 100%. Moreover, the pest or weed control at 100 ppm reads like this: under setting [10], 76 to 100%; under setting [12], 76 to 100%.
For `COc1ncc(F)c(NNc2ccccc2OC)n1` [Compound 1052], the pest or weed control at 25 ppm was 0 to 25% under setting [1], 0 to 25% under setting [2] and 0 to 25% under setting [3]. In addition, the pest or weed control at 100 ppm under setting [4] was 0 to 25%.
Regarding `CC(=O)Nc1nc(OC(C)c2ccc(F)cc2)ncc1F` (centres unmarked) [Compound 714], the pest or weed control at 25 ppm under setting [5] is 76 to 100% and the pest or weed control at 25 ppm under setting [7] lay in the range of 76 to 100%. The pest or weed control at 100 ppm was 76 to 100% under setting [6] and 76 to 100% under setting [8].
In the case of `C/C(=N\Nc1nc(OCc2ccc(C)cc2)ncc1F)c1ccc(C)o1` [Compound 718], the pest or weed control at 25 ppm under setting [5] is 26 to 50% and the pest or weed control at 25 ppm under setting [7] was in the range of 26 to 50%. Further, the pest or weed control at 100 ppm runs as follows: under setting [6], 76 to 100%; under setting [8], 26 to 50%.
Take `CCOC(=O)Nc1nc(OCc2cccc(C#N)c2)ncc1F` [Compound 314]: the pest or weed control at 25 ppm reads like this: under setting [9], 76 to 100%; under setting [11], 76 to 100%. Also, the pest or weed control at 100 ppm under setting [10] was in the range of 76 to 100% and the pest or weed control at 100 ppm under setting [12] lay within 76 to 100%.
As for `CCCNC(=S)Nc1nc(OCc2ccc(F)cc2)ncc1F` [Compound 37], the pest or weed control at 25 ppm runs as follows: under setting [13], 76 to 100%; under setting [15], 76 to 100%. The pest or weed control at 100 ppm lay in the range of 76 to 100% under setting [14] and 76 to 100% under setting [16].
Take `Nc1nc(OCCc2ccccc2Cl)ncc1F` [Compound 240]: the pest or weed control at 25 ppm was in the range of 0 to 25% under setting [9] and 0 to 25% under setting [11]. Further, the pest or weed control at 100 ppm reads like this: under setting [10], 26 to 50%; under setting [12], 0 to 25%.
With `Nc1nc(OCc2cn3ccsc3n2)ncc1F` [Compound 472], the pest or weed control at 25 ppm runs as follows: under setting [9], 76 to 100%; under setting [11], 76 to 100%. In addition, the pest or weed control at 100 ppm reads like this: under setting [10], 76 to 100%; under setting [12], 76 to 100%.
For `Cc1ccc(COc2ncc(F)c(/N=C/N3CCOCC3)n2)cc1` [Compound 402], the pest or weed control at 25 ppm runs as follows: under setting [9], 76 to 100%; under setting [11], 76 to 100%. Also, the pest or weed control at 100 ppm reads like this: under setting [10], 76 to 100%; under setting [12], 76 to 100%.
As for `CN(CCOc1ncc(F)c(N)n1)c1ccccc1` [Compound 372], the pest or weed control at 25 ppm under setting [9] fell in the range of 26 to 50%. In addition, the pest or weed control at 100 ppm under setting [10] was in the range of 76 to 100%.
Turning to `Cc1ccc(COc2ncc(F)c(NNC3CCCCC3)n2)cc1` [Compound 701], the pest or weed control at 25 ppm under setting [5] is 0 to 25% and the pest or weed control at 25 ppm under setting [7] lay in the range of 0 to 25%. Also, the pest or weed control at 100 ppm reads like this: under setting [6], 76 to 100%; under setting [8], 76 to 100%.
For the setting “24 h, one day protectant”, `Fc1ccccc1CNc1nc(OCc2ccccc2F)ncc1F` [Compound 809] came in with a pest or weed control at 50 ppm of 51 to 75% and a pest or weed control at 200 ppm of 76 to 100%.
Regarding `Nc1nc(OCc2cccs2)ncc1F` [Compound 213], the pest or weed control at 25 ppm under setting [9] was 76 to 100% and the pest or weed control at 25 ppm under setting [11] fell in the range of 76 to 100%. The pest or weed control at 100 ppm lay within 76 to 100% under setting [10] and 76 to 100% under setting [12].
With `Nc1cccc(COc2ncc(F)c(N)n2)c1` [Compound 430], the pest or weed control at 25 ppm runs as follows: under setting [9], 76 to 100%; under setting [11], 76 to 100%. For the same compound, the pest or weed control at 100 ppm is 76 to 100% under setting [10] and 76 to 100% under setting [12].
Turning to `Cc1cc(C)cc(COc2ncc(F)c(NSc3ccccc3[N+](=O)[O-])n2)c1` [Compound 440], the pest or weed control at 25 ppm by setting is: under setting [9], 0 to 25%; under setting [11], 26 to 50%. The pest or weed control at 100 ppm by setting is: under setting [10], 0 to 25%; under setting [12], 0 to 25%.
For `CCCNC(=S)Nc1nc(OCc2ccc(OC)c(F)c2)ncc1F` [Compound 552], the pest or weed control at 25 ppm under setting [5] is 0 to 25% and the pest or weed control at 25 ppm under setting [7] is 0 to 25%. Besides, the pest or weed control at 100 ppm lay in the range of 76 to 100% under setting [6] and 76 to 100% under setting [8].
As to `CN(C)/C=N/c1nc(OC(=O)c2ccccc2)ncc1F` [Compound 27, Benzoic acid 4-(dimethylamino-methyleneamino)-5-fluoropyrimidin-2-yl ester], the pest or weed control at 25 ppm reads like this: under setting [13], 76 to 100%; under setting [15], 76 to 100%. In addition, the pest or weed control at 100 ppm by setting is: under setting [14], 76 to 100%; under setting [16], 76 to 100%.
`O=C(Nc1ccccc1Cl)Nc1nc(O)ncc1F` [Compound 966]: the pest or weed control at 25 ppm runs as follows: under setting [1], 26 to 50%; under setting [2], 51 to 75%; under setting [3], 51 to 75%. In addition, the pest or weed control at 100 ppm under setting [4] fell in the range of 51 to 75%.
For the compound `Fc1ccccc1CNC(=S)Nc1nc(OCc2ccccc2)ncc1F` [Compound 438], the pest or weed control at 25 ppm is, setting by setting: under setting [9], 51 to 75%; under setting [11], 0 to 25%. The pest or weed control at 100 ppm is, setting by setting: under setting [10], 76 to 100%; under setting [12], 0 to 25%.
Regarding `COc1ccc(OC)c(COc2ncc(F)c(NSc3ccccc3[N+](=O)[O-])n2)c1` [Compound 680], the pest or weed control at 25 ppm fell in the range of 0 to 25% under setting [5] and 26 to 50% under setting [7]. Besides, the pest or weed control at 100 ppm runs as follows: under setting [6], 0 to 25%; under setting [8], 26 to 50%.
Regarding `CNN(C)c1nc(OC)ncc1F` [Compound 1056], the pest or weed control at 25 ppm under setting [1] was 0 to 25%, the pest or weed control at 25 ppm under setting [2] is 0 to 25% and the pest or weed control at 25 ppm under setting [3] lay in the range of 26 to 50%. Besides, the pest or weed control at 100 ppm under setting [4] lay in the range of 26 to 50%.
`COc1cccc(COc2ncc(F)c(NNc3cc(C)nc(C)n3)n2)c1` [Compound 1032]: the pest or weed control at 25 ppm runs as follows: under setting [1], 26 to 50%; under setting [2], 26 to 50%; under setting [3], 0 to 25%. For the same compound, under setting [4], the pest or weed control at 100 ppm was 0 to 25%.
For the compound `O=C(Nc1nc(OCc2ccccc2)ncc1F)c1ccccc1` [Compound 435], the pest or weed control at 25 ppm runs as follows: under setting [9], 76 to 100%; under setting [11], 51 to 75%. Moreover, the pest or weed control at 100 ppm fell in the range of 76 to 100% under setting [10] and 76 to 100% under setting [12].
In the case of `COc1ccc(/C(C)=N/Oc2ncc(F)c(N)n2)cc1` [Compound 999], the pest or weed control at 25 ppm runs as follows: under setting [1], 76 to 100%; under setting [2], 76 to 100%; under setting [3], 76 to 100%. The pest or weed control at 100 ppm under setting [4] lay in the range of 76 to 100%.
Under “24 h, one day protectant”, `Fc1ccc(COc2ncc(F)c(NCc3ccccc3F)n2)cc1F` [Compound 825] came in with a pest or weed control at 50 ppm of 51 to 75% and a pest or weed control at 200 ppm of 76 to 100%.
On to `Cc1ccc(COc2ncc(F)c(N)n2)c(C)c1` [Compound 323], for which the pest or weed control at 25 ppm lay within 76 to 100% under setting [9] and 76 to 100% under setting [11]. For the same compound, the pest or weed control at 100 ppm reads like this: under setting [10], 76 to 100%; under setting [12], 76 to 100%.
In the case of `C=CCOc1ncc(F)c(NNc2ccccc2F)n1` [Compound 1077], the pest or weed control at 25 ppm was 0 to 25% under setting [1], 0 to 25% under setting [2] and 0 to 25% under setting [3]. The pest or weed control at 100 ppm under setting [4] was 26 to 50%.
With `COc1ccccc1COc1ncc(F)c(NSc2ccccc2[N+](=O)[O-])n1` [Compound 230], the pest or weed control at 25 ppm reads like this: under setting [9], 76 to 100%; under setting [11], 0 to 25%. The pest or weed control at 100 ppm is, setting by setting: under setting [10], 76 to 100%; under setting [12], 0 to 25%.
